Values quoted from earlier work in US11554003B2, “Filtration devices and methods related thereto” (The Regents of the University of California, priority 2015, dated 2023).

Settings: IAC; regardless of infused dose

first pass hepatic clearance: 50-70%
SMILES: COc1cccc2c1C(=O)c1c(O)c3c(c(O)c1C2=O)C[C@@](O)(C(=O)CO)C[C@@H]3O[C@H]1C[C@H](N)[C@H](O)[C@H](C)O1 [Dox, doxorubicin]
